Laboratory results as given in PMC7226586 (Journal of Medicinal Chemistry, 2019).

What was measured:
[1] = plasma of EFV-treated subjects; cited from earlier work
substrate-free CYP46A1 = substrate-free CYP46A1 (Homo sapiens, UniProt Q9Y6A2); test: Spectral titrations of substrate-free CYP46A1; assay type: binding; conditions: for spectral response type, substrate-free CYP46A1: P450 difference spectrum, 18 °C
[2] = concentrations mimicking the 600 mg/day EFV dose; cited from earlier work
[3] = molecular target: cholesterol-bound CYP46A1 (Homo sapiens, UniProt Q9Y6A2); test: Spectral titrations of cholesterol-bound CYP46A1; assay type: binding; conditions: 20 μM cholesterol; for spectral response fit, cholesterol-bound CYP46A1 / spectral response type, cholesterol-bound CYP46A1: 18 °C
[4] = molecular target: CYP46A1 allosteric sites (EFV binding site, Glu binding site) (Homo sapiens, UniProt Q9Y6A2); test: Mapping of the allosteric site; assay type: biochemical; conditions: from co-incubations and mutants
[5] = cited from earlier work
[6] = molecular target: T1, purified recombinant CYP46A1 (Homo sapiens, UniProt Q9Y6A2); test: CYP46A1 enzyme assay; assay type: biochemical; conditions: for shape of concentration dependence curve of CYP46A1 activity: 0–100 μM compound; for CYP46A1 inhibition at the 60–100 μM concentrations: 60–100 μM compound
CYP46A1 = CYP46A1 (Homo sapiens, UniProt Q9Y6A2); test: Stopped-flow kinetics of compound binding to and release from CYP46A1
[7] = molecular target: T1, purified recombinant CYP46A1; conditions: previous study; cited from earlier work
protein (albumin) = conditions: cited from earlier work
[8] = within 1 h of an intraperitoneal administration; cited from earlier work
CYP46A1 in the brain = conditions: 0.32 (mg/da)/kg body dose, mice; cited from earlier work
[9] = Cholesterol binding to HPCD; conditions: read-out: Kd of cholesterol for HPCD; 50 mM KPi buffer (pH 7.2) containing 100 mM NaCl at 24 °C

## O=C1Nc2c(O)cc(Cl)cc2[C@@](C#CC2CC2)(C(F)(F)F)O1 [(S)-1, (S)-8-hydroxyEFV]
[1]
  plasma level: 315 to 2160 ng/mL
substrate-free CYP46A1
  fit of spectral titration curve, substrate-free CYP46A1: hyperbolic
  spectral response type, substrate-free CYP46A1: type 2
[2]
  cell damage or death in cell culture: induce cell damage or death
[3]
  fit of spectral titration curve, cholesterol-bound CYP46A1: sigmoidal
  spectral response fit, cholesterol-bound CYP46A1: S
  spectral response type, cholesterol-bound CYP46A1: reverse type 1-like
[4]
  allosteric site of binding: both EFV- and Glu-binding sites
[5]
  cerebrospinal fluid level: 3.1 to 5.3 ng/mL
[6]
  shape of concentration dependence curve of CYP46A1 activity: bell-shaped
  CYP46A1 inhibition at the 60–100 μM concentrations: did not inhibit
[6]; 100 μM L-Glu, 20 μM compound
  effect of co-incubation with L-Glu on CYP46A1 activation: synergistically activated

## O=C1Nc2ccc(Cl)cc2[C@@](C#CC2CC2)(C(F)(F)F)O1 [(S)-EFV, (S)-6-chloro-4-(cyclopropylethynyl)-4-(trifluoromethyl)-1,4-dihydro-2H-benzo[d][1,3]oxazin-2-one, reference compound]
[1]
  plasma level: 2170 to 3350 ng/mL
CYP46A1; stopped-flow experiments
  mechanism of binding to substrate-free CYP46A1: conformational-selection
CYP46A1; substrate-free CYP46A1, 15–30 μM compound
  spectral binding at 15–30 μM, stopped-flow: measurable
substrate-free CYP46A1
  fit of spectral titration curve, substrate-free CYP46A1: hyperbolic
  spectral response type, substrate-free CYP46A1: type 2
[7]
  CYP46A1 inhibition at 100 μM: almost completely inhibited
[3]
  fit of spectral titration curve, cholesterol-bound CYP46A1: sigmoidal
  spectral response fit, cholesterol-bound CYP46A1: S
  spectral response type, cholesterol-bound CYP46A1: reverse type 1
Protein (albumin)
  protein (albumin)-bound in the blood: ≥ 99.6%
[8]
  brain levels exceeding those in the plasma: 4.6 times
[5]
  cerebrospinal fluid level: 13.9 to 19.5 ng/mL
[6]
  shape of concentration dependence curve of CYP46A1 activity: bell-shaped
  CYP46A1 inhibition at the 60–100 μM concentrations: inhibitory
CYP46A1 in the brain
  effect on CYP46A1 in the brain: inhibited

## CC(C)CCC[C@@H](C)[C@H]1CC[C@H]2[C@@H]3CC=C4C[C@@H](O)CC[C@]4(C)[C@H]3CC[C@]12C [cholesterol]
CYP46A1
  calculated kon higher than that for rac-3: 1.9 fold
  calculated kon lower than that for (S)-EFV: 1.7 fold
CYP46A1; read-out: experimental koff (s^–1)
  koff: 0.012 ± 0.002 s⁻¹
substrate-free CYP46A1; Kd for substrate-free CYP46A1 (M), cholesterol, from an apparent Kd of 80 nM [20] after the correction for HPCD binding
  Kd: 9e-09 M
[9]
  Kd: 540 µM
